Laboratory results from PubChem BioAssay (NCI).
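Five concentrations, 48 hours, 96-well plates. TGI denotes the concentration required for complete inhibition of growth.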

Columns and labels:
Experiment in all cases: growth of human tumour cells (NCI), 48 h
A498 renal = test system: A498 renal
EKVX NSCLC = test system: EKVX NSCLC
RXF 393 renal = test system: RXF 393 renal
SF-295 CNS = test system: SF-295 CNS
MOLT-4 leukemia = test system: MOLT-4 leukemia
HS 578T breast = test system: HS 578T breast
SK-MEL-28 melanoma = test system: SK-MEL-28 melanoma
UACC-62 melanoma = test system: UACC-62 melanoma
HCT-15 colon = test system: HCT-15 colon
SK-OV-3 ovarian = test system: SK-OV-3 ovarian
SR leukemia = test system: SR leukemia
OVCAR-4 ovarian = test system: OVCAR-4 ovarian
OVCAR-8 ovarian = test system: OVCAR-8 ovarian
LOX IMVI melanoma = test system: LOX IMVI melanoma
HOP-62 NSCLC = test system: HOP-62 NSCLC
786-0 renal = test system: 786-0 renal
RPMI-8226 leukemia = test system: RPMI-8226 leukemia
UO-31 renal = test system: UO-31 renal
U251 CNS = test system: U251 CNS
SN12C renal = test system: SN12C renal
NCI-H522 lung = test system: NCI-H522 lung
CAKI-1 renal = test system: CAKI-1 renal
COLO 205 colon = test system: COLO 205 colon
SF-539 CNS = test system: SF-539 CNS
MDA-N = test system: MDA-N
HL-60(TB) leukemia = test system: HL-60(TB) leukemia
BT-549 breast = test system: BT-549 breast
MCF7 breast = test system: MCF7 breast
NCI-H23 lung = test system: NCI-H23 lung
SW-620 colon = test system: SW-620 colon
MALME-3M melanoma = test system: MALME-3M melanoma
NCI-H460 lung = test system: NCI-H460 lung
HCC-2998 colon = test system: HCC-2998 colon
NCI/ADR-RES ovarian = test system: NCI/ADR-RES ovarian
KM12 colon = test system: KM12 colon
SK-MEL-5 melanoma = test system: SK-MEL-5 melanoma
M14 melanoma = test system: M14 melanoma
T-47D breast = test system: T-47D breast
CCRF-CEM leukemia = test system: CCRF-CEM leukemia
MDA-MB-435 = test system: MDA-MB-435
IGROV1 ovarian = test system: IGROV1 ovarian
A549 NSCLC = test system: A549 NSCLC
HCT-116 colon = test system: HCT-116 colon
DU-145 prostate = test system: DU-145 prostate
OVCAR-3 ovarian = test system: OVCAR-3 ovarian
SNB-19 CNS = test system: SNB-19 CNS
SK-MEL-2 melanoma = test system: SK-MEL-2 melanoma
OVCAR-5 ovarian = test system: OVCAR-5 ovarian
HOP-92 NSCLC = test system: HOP-92 NSCLC
NCI-H226 lung = test system: NCI-H226 lung
HT29 colon = test system: HT29 colon
MDA-MB-231 breast = test system: MDA-MB-231 breast
TK-10 renal = test system: TK-10 renal
ACHN renal = test system: ACHN renal
SF-268 CNS = test system: SF-268 CNS
UACC-257 melanoma = test system: UACC-257 melanoma
SNB-75 CNS = test system: SNB-75 CNS
K-562 leukemia = test system: K-562 leukemia
PC-3 prostate = test system: PC-3 prostate

O=C(Nc1nnc(-c2ccc(Cl)cc2)o1)C(SC(=S)N1CCCCC1)c1ccccc1 (stereo not drawn)
TGI (A498 renal): 44.4 µM | TGI (EKVX NSCLC): 54.1 µM | TGI (RXF 393 renal): > 75.9 µM | TGI (SF-295 CNS): > 100 µM | TGI (MOLT-4 leukemia): 12.3 µM | TGI (HS 578T breast): 85 µM | TGI (SK-MEL-28 melanoma): 56.3 µM | TGI (UACC-62 melanoma): 31.8 µM | TGI (HCT-15 colon): > 81.5 µM | TGI (SK-OV-3 ovarian): > 100 µM | TGI (SR leukemia): 16.2 µM | TGI (OVCAR-4 ovarian): > 100 µM | TGI (OVCAR-8 ovarian): > 100 µM | TGI (LOX IMVI melanoma): > 50.6 µM | TGI (HOP-62 NSCLC): > 100 µM | TGI (786-0 renal): > 78.2 µM | TGI (RPMI-8226 leukemia): 38.2 µM | TGI (UO-31 renal): 27.8 µM | TGI (U251 CNS): > 100 µM | TGI (SN12C renal): 41.6 µM | TGI (NCI-H522 lung): 37.7 µM | TGI (CAKI-1 renal): > 100 µM | TGI (COLO 205 colon): > 100 µM | TGI (SF-539 CNS): > 84.2 µM | TGI (MDA-N): 37.2 µM | TGI (HL-60(TB) leukemia): 26.2 µM | TGI (BT-549 breast): > 86.7 µM | TGI (MCF7 breast): 49.9 µM | TGI (NCI-H23 lung): > 76.8 µM | TGI (SW-620 colon): > 100 µM | TGI (MALME-3M melanoma): 36.6 µM | TGI (NCI-H460 lung): 31.6 µM | TGI (HCC-2998 colon): 76.8 µM | TGI (NCI/ADR-RES ovarian): > 68.2 µM | TGI (KM12 colon): > 100 µM | TGI (SK-MEL-5 melanoma): 32.5 µM | TGI (M14 melanoma): 32.1 µM | TGI (T-47D breast): > 100 µM | TGI (CCRF-CEM leukemia): > 43.5 µM | TGI (MDA-MB-435): 97.6 µM | TGI (IGROV1 ovarian): > 65.6 µM | TGI (A549 NSCLC): 56.8 µM | TGI (HCT-116 colon): 34.8 µM | TGI (DU-145 prostate): > 100 µM | TGI (OVCAR-3 ovarian): > 72.6 µM | TGI (SNB-19 CNS): > 100 µM | TGI (SK-MEL-2 melanoma): 52.6 µM | TGI (OVCAR-5 ovarian): 64.2 µM | TGI (HOP-92 NSCLC): > 63.3 µM | TGI (NCI-H226 lung): 85.2 µM | TGI (HT29 colon): > 75.3 µM | TGI (MDA-MB-231 breast): 69.8 µM | TGI (TK-10 renal): > 100 µM | TGI (ACHN renal): 66.5 µM | TGI (SF-268 CNS): 61.1 µM | TGI (UACC-257 melanoma): > 70.4 µM | TGI (SNB-75 CNS): > 100 µM | TGI (K-562 leukemia): > 88 µM | TGI (PC-3 prostate): > 100 µM

CCC(C)NC(=S)N/N=C(\C)c1nc2ncccc2[nH]1 (stereo not drawn)
TGI (A498 renal): > 100 µM | TGI (EKVX NSCLC): > 100 µM | TGI (RXF 393 renal): > 75.6 µM | TGI (SF-295 CNS): > 100 µM | TGI (MOLT-4 leukemia): 46.6 µM | TGI (HS 578T breast): > 100 µM | TGI (SK-MEL-28 melanoma): > 100 µM | TGI (UACC-62 melanoma): 79.7 µM | TGI (HCT-15 colon): > 100 µM | TGI (SK-OV-3 ovarian): > 69.9 µM | TGI (SR leukemia): > 85.6 µM | TGI (OVCAR-4 ovarian): > 73 µM | TGI (OVCAR-8 ovarian): > 100 µM | TGI (LOX IMVI melanoma): > 100 µM | TGI (HOP-62 NSCLC): > 100 µM | TGI (786-0 renal): > 100 µM | TGI (RPMI-8226 leukemia): > 100 µM | TGI (UO-31 renal): 11.6 µM | TGI (U251 CNS): > 100 µM | TGI (SN12C renal): > 100 µM | TGI (NCI-H522 lung): > 100 µM | TGI (CAKI-1 renal): 49.4 µM | TGI (COLO 205 colon): > 100 µM | TGI (SF-539 CNS): 70.5 µM | TGI (MDA-N): > 100 µM | TGI (HL-60(TB) leukemia): > 100 µM | TGI (BT-549 breast): > 72.3 µM | TGI (MCF7 breast): > 100 µM | TGI (NCI-H23 lung): > 100 µM | TGI (SW-620 colon): > 100 µM | TGI (MALME-3M melanoma): > 100 µM | TGI (NCI-H460 lung): > 100 µM | TGI (HCC-2998 colon): > 100 µM | TGI (NCI/ADR-RES ovarian): > 79.5 µM | TGI (KM12 colon): > 100 µM | TGI (SK-MEL-5 melanoma): 28.6 µM | TGI (M14 melanoma): 62.6 µM | TGI (T-47D breast): > 56.7 µM | TGI (CCRF-CEM leukemia): 38.7 µM | TGI (MDA-MB-435): > 100 µM | TGI (IGROV1 ovarian): > 100 µM | TGI (A549 NSCLC): > 100 µM | TGI (HCT-116 colon): > 100 µM | TGI (DU-145 prostate): > 100 µM | TGI (OVCAR-3 ovarian): > 100 µM | TGI (SNB-19 CNS): 97.8 µM | TGI (SK-MEL-2 melanoma): > 100 µM | TGI (OVCAR-5 ovarian): > 84 µM | TGI (HOP-92 NSCLC): 44.6 µM | TGI (NCI-H226 lung): 38.7 µM | TGI (HT29 colon): > 100 µM | TGI (MDA-MB-231 breast): > 100 µM | TGI (TK-10 renal): > 100 µM | TGI (ACHN renal): > 100 µM | TGI (SF-268 CNS): > 88.4 µM | TGI (UACC-257 melanoma): > 100 µM | TGI (SNB-75 CNS): > 100 µM | TGI (K-562 leukemia): > 100 µM | TGI (PC-3 prostate): > 100 µM
